Among the test systems are T-47D breast; HCT-116 colon; SK-MEL-2 melanoma; HCT-15 colon; CCRF-CEM leukemia; K-562 leukemia; A498 renal; OVCAR-8 ovarian; PC-3 prostate; A549 NSCLC.
Common to all, as to assay: NCI tumour cell line growth inhibition, 48 h

We go through seven molecules from PubChem BioAssay (NCI).

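Where inhibition never reached the appropriate level, the endpoint shown equals the highest concentration tested. Otherwise, values were interpolated linearly from a five-concentration, 48-hour dose response in 96-well plates. Abbreviation: GI50, concentration required for 50% inhibition of growth. Definition used: TGI = concentration required for complete inhibition of growth.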

Regarding `COc1ccc(-c2nc3sccn3c2/C=C/C(=O)c2cc(OC)c(OC)c(OC)c2)cc1OC`, the GI50 with T-47D breast is 1.72 µM; in the test with HCT-116 colon, 2.31 µM; in the test on SK-MEL-2 melanoma, 1.87 µM; with HCT-15 colon, 3.24 µM; in the test on CCRF-CEM leukemia, 2.64 µM; in the test on K-562 leukemia, 2.41 µM. The GI50 is 2.6 µM with A498 renal, 2.47 µM in the test with OVCAR-8 ovarian, 2.21 µM in the test with PC-3 prostate and 2.62 µM in the test with A549 NSCLC. Moreover, the TGI with T-47D breast was 5.83 µM; in the test on HCT-116 colon, 6.44 µM; in the test with SK-MEL-2 melanoma it was 4.65 µM; in the test on HCT-15 colon, more than 100 µM; in the test with CCRF-CEM leukemia, more than 100 µM; in the test on K-562 leukemia it was more than 100 µM. The TGI is 8.2 µM in the test with A498 renal, 7.15 µM in the test on OVCAR-8 ovarian, 6.96 µM in the test on PC-3 prostate and 6.03 µM with A549 NSCLC.

As to `CCN(Cc1ccc(F)cc1F)c1ccc(CO)c(Cl)c1`, the GI50 with T-47D breast was 0.105 µM; with HCT-116 colon, 0.0861 µM; in the test on SK-MEL-2 melanoma it was 5.36 µM; in the test on HCT-15 colon, 11.2 µM; in the test on CCRF-CEM leukemia it was 23.9 µM; in the test with K-562 leukemia, 1.65 µM. Moreover, the GI50 in the test with A498 renal was 0.0316 µM; in the test on OVCAR-8 ovarian, 12.9 µM; in the test with PC-3 prostate, 16.3 µM; in the test on A549 NSCLC it was 1.85 µM. The TGI in the test on T-47D breast is 0.701 µM; in the test on HCT-116 colon, 12.5 µM; with SK-MEL-2 melanoma, 21.3 µM; with HCT-15 colon it was 30.5 µM; in the test on CCRF-CEM leukemia it was more than 88.5 µM; in the test on K-562 leukemia, more than 100 µM. In addition, the TGI is 0.136 µM in the test with A498 renal, 41.3 µM with OVCAR-8 ovarian, 49.2 µM in the test with PC-3 prostate and 21.2 µM in the test with A549 NSCLC.

For `COc1ccc(/C=C/C(=O)/C=C(/C=C/c2ccc(OC)c(OC)c2)OB(F)F)cc1OC`, the GI50 with T-47D breast is 0.805 µM; with HCT-116 colon it was 0.321 µM; in the test on SK-MEL-2 melanoma it was 1.81 µM; with HCT-15 colon, 0.286 µM; in the test on CCRF-CEM leukemia, 0.323 µM; with K-562 leukemia, 0.463 µM. For the same molecule, the GI50 was 1.83 µM in the test on A498 renal, 0.417 µM with OVCAR-8 ovarian, 1.05 µM in the test on PC-3 prostate and 2.24 µM with A549 NSCLC. Moreover, the TGI with T-47D breast is more than 100 µM; in the test with HCT-116 colon, 1.09 µM; with SK-MEL-2 melanoma it was 4.39 µM; in the test with HCT-15 colon it was 1.12 µM; in the test with CCRF-CEM leukemia, 2.63 µM; in the test on K-562 leukemia it was more than 100 µM. The TGI in the test with A498 renal was 5.12 µM; in the test on OVCAR-8 ovarian, more than 100 µM; in the test with PC-3 prostate it was 7.51 µM; in the test with A549 NSCLC it was 7.62 µM.

On to `Clc1ccc(N2COOC3(OOC2)C2CC4CC(C2)CC3C4)cc1`, for which the GI50 with T-47D breast was 4.97 µM; in the test on HCT-116 colon, 4.1 µM; in the test on SK-MEL-2 melanoma it was 10.5 µM; in the test on HCT-15 colon, 0.864 µM; in the test with CCRF-CEM leukemia, 2.81 µM; in the test with K-562 leukemia, 0.543 µM. Further, the GI50 with A498 renal is 11.9 µM; in the test with OVCAR-8 ovarian, 14.4 µM; in the test on PC-3 prostate, 5.11 µM; in the test on A549 NSCLC it was 5.18 µM. The TGI was more than 100 µM in the test on T-47D breast; more than 50.2 µM with HCT-116 colon; more than 88.3 µM in the test on SK-MEL-2 melanoma; more than 41.9 µM in the test with HCT-15 colon; more than 39.5 µM in the test on K-562 leukemia; more than 100 µM in the test on A498 renal. For the same molecule, the TGI with OVCAR-8 ovarian is more than 100 µM; with PC-3 prostate, more than 75.3 µM; in the test on A549 NSCLC it was more than 100 µM.

Turning to `Cc1c(C(=O)CCl)c(=O)n(-c2ccccc2)n1C`, the GI50 in the test on T-47D breast is 2.43 µM; in the test on HCT-116 colon, 2.86 µM; with SK-MEL-2 melanoma, 3.99 µM; in the test on HCT-15 colon it was 3.59 µM; in the test on CCRF-CEM leukemia, 1.01 µM; in the test on K-562 leukemia it was 2.76 µM. The GI50 with A498 renal is 1.24 µM; with OVCAR-8 ovarian, 3.85 µM; in the test with PC-3 prostate, 11.4 µM; in the test on A549 NSCLC, 11.6 µM. In addition, the TGI with T-47D breast is 17.6 µM; in the test with HCT-116 colon, 10.4 µM; with SK-MEL-2 melanoma, 14.5 µM; with HCT-15 colon, 15.5 µM; in the test on CCRF-CEM leukemia, 4.82 µM; in the test on K-562 leukemia it was 17.3 µM. Further, the TGI with A498 renal came out at 11 µM; with OVCAR-8 ovarian, 28.3 µM; in the test with PC-3 prostate, 37.5 µM; in the test on A549 NSCLC it was 27.4 µM.

Consider `Cc1c(C(=O)N/N=C/c2ccc(O)cc2)nnn1-c1ccnc2c(C(F)(F)F)cccc12`, for which the GI50 was 92.5 µM with T-47D breast; 50.1 µM in the test on HCT-116 colon; more than 100 µM with SK-MEL-2 melanoma; more than 100 µM with HCT-15 colon; more than 100 µM in the test on CCRF-CEM leukemia; more than 100 µM in the test on K-562 leukemia. In addition, the GI50 in the test with A498 renal is 36.6 µM; in the test with OVCAR-8 ovarian, 21.5 µM; with PC-3 prostate, more than 100 µM; with A549 NSCLC, more than 100 µM. For the same molecule, the TGI in the test with T-47D breast, in the test with HCT-116 colon, in the test with SK-MEL-2 melanoma, with HCT-15 colon, in the test on CCRF-CEM leukemia and with K-562 leukemia was more than 100 µM each time. Further, the TGI in the test with A498 renal, in the test with OVCAR-8 ovarian, in the test with PC-3 prostate and with A549 NSCLC was more than 100 µM in each case.

Consider `CCOC(=O)Oc1c(OC)cc(C(=O)c2ccc(OC)c(OC(=O)CCl)c2OC)cc1OC`, for which the GI50 was 7.32 µM with T-47D breast; 0.494 µM in the test on HCT-116 colon; 0.668 µM in the test on SK-MEL-2 melanoma; 0.415 µM in the test with HCT-15 colon; 0.662 µM in the test with CCRF-CEM leukemia; 0.457 µM with K-562 leukemia. The GI50 was 3 µM in the test on A498 renal, 2.65 µM with OVCAR-8 ovarian, 2.83 µM with PC-3 prostate and 3.39 µM in the test with A549 NSCLC. Besides, the TGI in the test on T-47D breast was more than 100 µM; with HCT-116 colon, 36.2 µM; with SK-MEL-2 melanoma, 60.2 µM; with HCT-15 colon, more than 100 µM; with CCRF-CEM leukemia, more than 100 µM; with K-562 leukemia it was more than 100 µM. The TGI was 16.6 µM in the test on A498 renal, more than 100 µM in the test with OVCAR-8 ovarian, more than 100 µM in the test on PC-3 prostate and more than 100 µM in the test with A549 NSCLC.
